The target in test [1] is T1, AHR (Mus musculus, UniProt P30561).
T1 sequence (P30561 1-848 P471L/N533S/M589L): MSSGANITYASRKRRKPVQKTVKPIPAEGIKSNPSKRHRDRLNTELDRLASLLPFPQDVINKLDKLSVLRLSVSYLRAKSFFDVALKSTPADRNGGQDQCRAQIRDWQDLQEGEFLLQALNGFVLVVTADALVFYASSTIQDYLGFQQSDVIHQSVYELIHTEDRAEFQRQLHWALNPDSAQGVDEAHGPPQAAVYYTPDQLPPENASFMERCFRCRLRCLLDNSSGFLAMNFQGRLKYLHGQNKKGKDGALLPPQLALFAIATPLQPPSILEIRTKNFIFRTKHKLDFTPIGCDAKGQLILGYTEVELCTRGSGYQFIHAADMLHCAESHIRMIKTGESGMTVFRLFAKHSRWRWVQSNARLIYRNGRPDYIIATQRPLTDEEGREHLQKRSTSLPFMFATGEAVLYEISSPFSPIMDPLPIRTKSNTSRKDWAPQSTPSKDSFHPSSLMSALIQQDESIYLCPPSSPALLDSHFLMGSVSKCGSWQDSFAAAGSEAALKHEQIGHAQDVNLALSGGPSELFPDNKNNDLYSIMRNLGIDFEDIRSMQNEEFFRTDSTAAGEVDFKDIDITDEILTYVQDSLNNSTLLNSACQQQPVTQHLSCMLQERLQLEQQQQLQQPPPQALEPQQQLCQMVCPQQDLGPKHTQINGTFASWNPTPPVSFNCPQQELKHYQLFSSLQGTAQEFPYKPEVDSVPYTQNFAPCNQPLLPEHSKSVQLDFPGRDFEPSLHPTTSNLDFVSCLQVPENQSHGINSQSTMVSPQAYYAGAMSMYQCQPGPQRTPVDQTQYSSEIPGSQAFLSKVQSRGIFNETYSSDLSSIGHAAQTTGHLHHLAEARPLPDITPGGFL
The test is described as follows: In vitro assay 3: antagonism in mouse cell line (AHR transactivation, firefly luciferase reporter, kynurenic acid prestimulated). The test is classed as cell-based. In a few lines:
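Kynurenic acid-prestimulated mouse reporter cells; stable AHR-inducible firefly luc construct with DRE sites in promoter. No-agonist wells = positive inhibition ctrl. Luminescence normalized to pos/neg ctrls; n>1 reported as mean or median.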
For orientation: A reporter such as luciferase makes a cellular process visible.

For test [2], the target named is T2, AHR (Homo sapiens, UniProt P35869).
T2 construct: U87 MG glioblastoma cells (ATCC #HTB-14) endogenously expressing AHR; endogenous in cells; host or cells: U87 MG glioblastoma cells (ATCC #HTB-14)
T2 sequence (P35869 11-848): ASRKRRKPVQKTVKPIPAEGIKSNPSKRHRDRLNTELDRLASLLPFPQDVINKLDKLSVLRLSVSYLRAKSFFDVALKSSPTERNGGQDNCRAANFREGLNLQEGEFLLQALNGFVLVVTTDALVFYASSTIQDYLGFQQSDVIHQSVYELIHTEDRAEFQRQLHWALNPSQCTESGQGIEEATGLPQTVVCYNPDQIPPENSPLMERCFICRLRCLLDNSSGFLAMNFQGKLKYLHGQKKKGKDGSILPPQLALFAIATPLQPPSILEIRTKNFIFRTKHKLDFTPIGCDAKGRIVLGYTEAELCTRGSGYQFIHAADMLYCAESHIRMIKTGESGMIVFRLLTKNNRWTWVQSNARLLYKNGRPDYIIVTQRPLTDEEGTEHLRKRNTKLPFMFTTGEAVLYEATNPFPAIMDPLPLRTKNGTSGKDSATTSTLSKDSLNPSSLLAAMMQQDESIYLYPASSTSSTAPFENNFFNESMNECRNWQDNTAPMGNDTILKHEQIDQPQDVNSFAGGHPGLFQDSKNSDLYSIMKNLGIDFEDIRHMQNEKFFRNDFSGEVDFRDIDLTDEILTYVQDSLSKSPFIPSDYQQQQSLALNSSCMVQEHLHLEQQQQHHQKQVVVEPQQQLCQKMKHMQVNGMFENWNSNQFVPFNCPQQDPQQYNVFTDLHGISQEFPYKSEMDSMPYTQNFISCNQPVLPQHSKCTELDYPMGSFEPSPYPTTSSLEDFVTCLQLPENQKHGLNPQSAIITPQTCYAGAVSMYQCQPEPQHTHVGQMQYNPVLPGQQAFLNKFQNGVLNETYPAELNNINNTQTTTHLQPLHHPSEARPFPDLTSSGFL
The test is described as follows: In vitro assay 1: antagonism in human cell line (AHR transactivation, firefly luciferase reporter, kynurenic acid prestimulated). The test is classed as cell-based. Conditions: AHR Antagonism Human IC50 [M]. In a few lines: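 Antagonism measured as loss of kynurenic acid-driven firefly luciferase from DRE reporter in stably transfected U87 MG cells; constitutive Renilla signal monitors cytotoxicity. Positive/negative control normalization, staurosporine 5 μM with 150 μM kynurenic acid as inhibition control; replicates given as mean or median.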

The mark [3] stands for this setting: mouse Hepa 1c1c7 cells, 200 μM kynurenic acid, 20 hours, read-out: AHR Antagonism Mouse IC50.
Where [4] appears, read: Hepa 1c1c7 cells, 200 μM kynurenic acid, 20 hours, firefly luciferase reporter, read-out: AHR Antagonism Mouse IC50.

The IC50 is the concentration at which inhibition is half-maximal.

Values joined by “and” are separate entries in the source; they are usually repeats but may differ in a detail not shown here. Equal entries are not always repeated. Where two headings read alike, the source gives them in different places.

Take `COc1ccc(-c2nc3c4ccccc4nc(N[C@@H]4CCCCNC4=O)n3n2)c(F)c1` [Example 631, (3R)-3-{[2-(2-fluoro-4-methoxyphenyl)[1,2,4]triazolo[1,5-c]quinazolin-5-yl]amino}azepan-2-one]: the concentration for half-maximal inhibition (IC50) was 3.53 nM on AHR [1] (setting [3]) and 1e-09 M against AHR [2].
As to `Cn1cc(-c2nc3c4cccc(C#N)c4nc(N[C@@H]4CNCCNC4=O)n3n2)cn1` [Example 930, 2-(1-methyl-1H-pyrazol-4-yl)-5-{[(6R)-5-oxo-1,4-diazepan-6-yl]amino}[1,2,4]triazolo[1,5-c]quinazoline-7-carbonitrile], the IC50 at AHR [1] (setting [4]) is 14100 nM; at AHR [2] (firefly luciferase reporter), 5.21e-06 M.
For the molecule `CNCCNC(=O)[C@@H](C)Nc1nc2c(Br)cccc2c2nc(-c3ccc(OC)cc3)nn12` [Example 987, N^2-[7-bromo-2-(4-methoxyphenyl)[1,2,4]triazolo[1,5-c]quinazolin-5-yl]-N-[2-(methylamino)ethyl]-D-alaninamide-hydrogen chloride (1/1)], the IC50 on AHR [1] (setting [4]) came out at 13.2 nM; against AHR [2] (firefly luciferase reporter), 8.61e-09 M.
`O=C1NCCCC[C@H]1Nc1nc2ccccc2c2nc(-c3ccc(F)c(Cl)c3)nn12` [Example 625, (3R)-3-{[2-(3-chloro-4-fluorophenyl)[1,2,4]triazolo[1,5-c]quinazolin-5-yl]amino}azepan-2-one]: the IC50 was over 2000 nM at AHR [1] (read-out: AHR Antagonism Mouse IC50, mouse Hepa 1c1c7 cells, 200 μM kynurenic acid, 20 hours) and 1.5e-09 M at AHR [2].
Turning to `COc1ccc(-c2nc3c4ccccc4nc(NC4CNCCNC4=O)n3n2)cc1` (single isomer, unassigned) [Example 35, 6-{[2-(4-methoxyphenyl)[1,2,4]triazolo[1,5-c]quinazolin-5-yl]amino}-1,4-diazepan-5-one], the values for the half-inhibitory concentration (IC50) on AHR [1] (setting [3]) and against AHR [2] were 60.4 nM and 1.55e-06 M, respectively.
In the same order, the values of `CC[C@@H](Nc1nc2ccccc2c2nc(-c3cc(F)ccc3OC(F)(F)F)nn12)C(N)=O` [Example 496, (2R)-2-({2-[5-fluoro-2-(trifluoromethoxy)phenyl][1,2,4]triazolo[1,5-c]quinazolin-5-yl}amino)butanamide] are 1.9 nM and 4.66e-08 M.
As to `CCn1cc(-c2nc3c4cccc(Cl)c4nc(N[C@@H]4CNCCNC4=O)n3n2)c(C)n1` [Example 958, (6R)-6-{[7-chloro-2-(1-ethyl-3-methyl-1H-pyrazol-4-yl)[1,2,4]triazolo[1,5-c]quinazolin-5-yl]amino}-1,4-diazepan-5-one], the concentration for half-maximal inhibition (IC50) at AHR [1] (setting [4]) stood at 2.84 nM; against AHR [2] (firefly luciferase reporter), 1.9e-09 M.
`N#Cc1cccc2nc(N[C@@H]3CCCCNC3=O)n3nc(-c4cccc(F)c4)nc3c12` [Example 249, 2-(3-fluorophenyl)-5-{[(3R)-2-oxoazepan-3-yl]amino}[1,2,4]triazolo[1,5-c]quinazoline-10-carbonitrile]: the results for the IC50 on AHR [1] (setting [3]) and against AHR [2] were 3.63 nM and 2.96e-08 M, respectively.
Taken in the same sequence, the figures for `O=C1NCCCC[C@H]1Nc1nc2ccccc2c2nc(-c3ccc(Br)cc3OC(F)(F)F)nn12` [Example 440, (3R)-3-({2-[4-bromo-2-(trifluoromethoxy)phenyl][1,2,4]triazolo[1,5-c]quinazolin-5-yl}amino)azepan-2-one] were 0.642 nM and 2.43e-09 M.
For `COc1ccc(-c2nc3c4cccc(OC5CCC5)c4nc(N[C@@H]4CCCCNC4=O)n3n2)cc1` [Example 998, (3R)-3-{[7-(cyclobutyloxy)-2-(4-methoxyphenyl)[1,2,4]triazolo[1,5-c]quinazolin-5-yl]amino}azepan-2-one], the values for the IC50 on AHR [1] (setting [4]) and at AHR [2] (firefly luciferase reporter) were 279 nM and 4.16e-07 M, respectively.
Regarding `CCNC(=O)C(CC)Nc1nc2ccccc2c2nc(-c3cccc(OC(F)(F)F)c3)nn12` (single isomer, unassigned) [Example 319, N-ethyl-2-({2-[3-(trifluoromethoxy)phenyl][1,2,4]triazolo[1,5-c]quinazolin-5-yl}amino)butanamide], the results for the concentration for half-maximal inhibition (IC50) on AHR [1] (setting [3]) and against AHR [2] were 0.502 nM and 1.74e-08 M, respectively.
With `CC(C)n1cc(-c2nc3c4cccc(S(C)(=O)=O)c4nc(N[C@@H]4CNCCNC4=O)n3n2)cn1` [Example 944, (6R)-6-({7-(methanesulfonyl)-2-[1-(propan-2-yl)-1H-pyrazol-4-yl][1,2,4]triazolo[1,5-c]quinazolin-5-yl}amino)-1,4-diazepan-5-one], the IC50 on AHR [1] (setting [4]) was determined as 4620 nM; on AHR [2] (firefly luciferase reporter), 1.67e-06 M.
Take `COC(=O)c1cccc2c1nc(N[C@@H]1CCCCNC1=O)n1nc(-c3ccc(OC)cc3)nc21` [Example 250, Methyl 2-(4-methoxyphenyl)-5-{[(3R)-2-oxoazepan-3-yl]amino}[1,2,4]triazolo[1,5-c]quinazoline-7-carboxylate]: the IC50 on AHR [1] (setting [3]) worked out at 135 nM; on AHR [2] it was 1.43e-08 M.
For the molecule `CC[C@@H](Nc1nc2ccccc2c2nc(-c3cn(C)nn3)nn12)C(N)=O` [Example 793, (2R)-2-{[2-(1-methyl-1H-1,2,3-triazol-4-yl)[1,2,4]triazolo[1,5-c]quinazolin-5-yl]amino}butanamide], the IC50 amounted to 694 nM on AHR [1] (read-out: AHR Antagonism Mouse IC50, Hepa 1c1c7 cells, 200 μM kynurenic acid, 20 hours, firefly luciferase reporter) and 2.94e-06 M at AHR [2] (firefly luciferase reporter).
Take `COc1ccc(-c2nc3c4cccc(S(C)(=O)=O)c4nc(N[C@@H]4CCCCNC4=O)n3n2)cc1` [Example 842, (3R)-3-{[7-(methanesulfonyl)-2-(4-methoxyphenyl)[1,2,4]triazolo[1,5-c]quinazolin-5-yl]amino}azepan-2-one]: the IC50 at AHR [1] (setting [4]) was found to be 9.92 nM; against AHR [2] (firefly luciferase reporter), 4.03e-10 M.
For the molecule `CC(C)n1cc(-c2nc3c4cccc(Br)c4nc(N[C@@H]4CCCCNC4=O)n3n2)cn1` [Example 822, (3R)-3-({7-bromo-2-[1-(propan-2-yl)-1H-pyrazol-4-yl][1,2,4]triazolo[1,5-c]quinazolin-5-yl}amino)azepan-2-one], the IC50 amounted to 1.68 nM on AHR [1] (setting [4]) and 7.23e-10 M at AHR [2] (firefly luciferase reporter).
On to `COc1ccc(-c2nc3c4cccc(C(=O)OC(C)C)c4nc(N[C@@H]4CCCCNC4=O)n3n2)cc1` [Example 653, propan-2-yl 2-(4-methoxyphenyl)-5-{[(3R)-2-oxoazepan-3-yl]amino}[1,2,4]triazolo[1,5-c]quinazoline-7-carboxylate], for which the IC50 on AHR [1] (setting [3]) is over 20000 nM; at AHR [2] it was 2.58e-07 M.
Take `O=C1NCCCC[C@H]1Nc1nc2ccccc2c2nc(-c3cnn(C4CCNCC4)c3)nn12` [Example 646, (3R)-3-({2-[1-(piperidin-4-yl)-1H-pyrazol-4-yl][1,2,4]triazolo[1,5-c]quinazolin-5-yl}amino)azepan-2-one]: the IC50 at AHR [1] (setting [3]) was > 20000 nM and 11800 nM; against AHR [2], 2.89e-06 M.
In the case of `O=C1NCCCC[C@H]1Nc1nc2ccccc2c2nc(-c3ccc(Br)o3)nn12` [Example 537, (3R)-3-{[2-(5-bromofuran-2-yl)[1,2,4]triazolo[1,5-c]quinazolin-5-yl]amino}azepan-2-one], the half-maximal inhibitory concentration (IC50) stood at 1.9 nM at AHR [1] (setting [3]) and 4.31e-09 M on AHR [2].

(Values after patent publication US20230113037A1 (Bayer Aktiengesellschaft, priority 2019, published 2023).)
